Series [1] concerns EMP2 mRNA expression of TSGH8301 human bladder cancer cell line. Put plainly: Relative quantification of EMP2 mRNA expression in TSGH8301 cells incubated with genistein. Type of series: cell-based. On the procedure: TSGH8301 cell lines were initially incubated with mediums containing 2 μM, 5 μM and 10 μM of genistein, respectively, and the respective EMP2 mRNA expressions was measured at sixth day, wherein mRNA expressions of housekeeping gene was taken as the baseline control.
TSGH8301 cells were initially incubated with medium containing 15 μM of genistein and EMP2 mRNA expressions were measured at second, fourth and sixth days, respectively, wherein mRNA expressions of housekeeping gene of TSGH8301 cell lines were taken as the baseline control. With increase of incubating durations, EMP2 mRNA expression of TSGH8301 cells incubated with genistein was increased as shown in FIG. 3.

The test system of series [2] is EMP2 mRNA expression of RT4 bladder cancer cell line. Put plainly: Northern blotting of EMP2 mRNA expression in RT4 cells treated with genistein. The series is classed as cell-based. The following applies: genistein 10 μg/mL, 24 hours, normalized to β-actin. On the procedure: FIG. 1A is a northern blotting figure showing the respective EMP2 mRNA expressions of RT4 bladder cancer cell line treated with genistein (10 μg/mL) for 24 hours (Isoflavone treatment group) or not (Control group).
Please refer to FIG. 1A which is a northern blotting figure. […] That is, genistein, the isoflavone compound, can up-regulate the EMP2 mRNA expression of RT4 cells.

The next series relates to β3 integrin. Put plainly: Expression of β3 integrin after shRNA transfection. The following applies: TSGH8301 and TSGH8301/EMP2-2 cell lines. Type of series: cell-based, human. The text has this: (§1) These two cell lines were transfected with small hairpin RNAs (shRNA) against αV and β3 integrins, respectively. In brief, TSGH8301 and TSGH8301/EMP2-2 cell lines were transfected with shRNAs of A1 or C1 against β3 integrin, shRNAs of H1 or G1 against αV integrin. The mRNA of EMP2 and TBP of these transfected cell lines were harvested for quantification by real-time PCR. The sequences of shRNAs of A1 (SEQ ID NO. 1), C1 (SEQ ID NO. 2), H1 (SEQ ID NO. 3) and G1 (SEQ ID NO. 4) are 5′-[…] CATAATGTTTTT-3′, 5′-[…] AACAGGGTTTTT-3′, 5′-[…] GTAAGGCTTTTTG-3′ and 5′-[…] TCCCTCGTTTTTG-3′, respectively. After transfections of shRNAs of A1, C1, H1 and G1, expressions of αV and β3 integrins in TSGH8301 and TSGH8301/EMP2-2 cell lines were repressed correspondingly. Besides, mRNA expression of EMP2 and TBP in TSGH8301 and TSGH8301/EMP2-2 cell lines without transfection was taken as controls (Ctl).

In a further series the test system is αV integrin. Put plainly: Expression of αV integrin after shRNA transfection. The series is classed as cell-based, human. The following applies: TSGH8301 and TSGH8301/EMP2-2 cell lines.
Text: as §1

On to `O=c1c(-c2ccc(O)cc2)coc2cc(O)cc(O)c12` [genistein], for which the “EMP2 mRNA expression, dependence on genistein concentration” value in series [1] (2 μM, 5 μM and 10 μM genistein, measured at sixth day, P=0.03 two way ANOVA) is recorded as “dose-dependent up-regulation”. Also, in series [1] (15 μM genistein, measured at second, fourth and sixth days, P=0.03 one way ANOVA), the “EMP2 mRNA expression, dependence on incubating duration” value was “time-dependent up-regulation”. Moreover, the “EMP2 mRNA expression compared with Control group (defined as 1)” value in series [2] is recorded as “up to 3.5 times”.

For “A1: shRNA against β3 integrin, 5′-CCGGCATTATGTTTACAGAGGACAACTCGAGTTGTCCTCTGTAAA CATAATGTTTTT-3′ (CCGGCATTATGTTTACAGAGGACAACTCGAGTTGTCCTCTGTAAACATAATGTTTTT)”, the “expression of β3 integrin after shRNA transfection” value in the series on β3 integrin is “repressed”.

Regarding “C1: shRNA against β3 integrin, 5′-CCGGCCCTGTTACAATATGAAGAATCTCGAGATTCTTCATATTGT AACAGGGTTTTT-3′ (CCGGCCCTGTTACAATATGAAGAATCTCGAGATTCTTCATATTGTAACAGGGTTTTT)”, the “expression of β3 integrin after shRNA transfection” value in the series with β3 integrin is recorded as “repressed”.

Consider “G1: shRNA against αV integrin, 5′-CCGGCGAGGGAAGTTACTTCGGATTCTCGAGAATCCGAAGTAACT TCCCTCGTTTTTG-3′ (CCGGCGAGGGAAGTTACTTCGGATTCTCGAGAATCCGAAGTAACTTCCCTCGTTTTTG)”, for which the “expression of αV integrin after shRNA transfection” value with αV integrin is listed as “repressed”.

In the case of “H1: shRNA against αV integrin, 5′-CCGGGCCTTACAAATACAACAACAACTCGAGTTGTTGTTGTATTT GTAAGGCTTTTTG-3′ (CCGGGCCTTACAAATACAACAACAACTCGAGTTGTTGTTGTATTTGTAAGGCTTTTTG)”, the “expression of αV integrin after shRNA transfection” value with αV integrin was “repressed”.

The values above are taken from patent US9180139B2, “Regulator, pharmaceutical composition encompassing the regulator and application thereof” (NATIONAL CHENG KUNG UNIVERSITY, priority 2012, dated 2015).
